Measurements reported in the OPERA property sets (Mansouri et al. 2018).

Conditions: for log10 BCF / log10 biotransformation half-life (days): fish

Row | Structure (SMILES) | melting point [°C] | boiling point [°C] | further results
1 | NNc1ccccn1 | 46.6 | – | –
2 | Clc1ccc(Cl)c(-c2cc(Cl)c(Cl)c(Cl)c2)c1 | 105 | – | –
3 | Cc1c(Br)cc(Br)cc1Br | 70 | 290 | –
4 | CCCCC(CC)COP(=O)(Oc1ccccc1)Oc1ccccc1 (configuration not stated) | -54 | 375 | log10 Henry constant (atm·m³/mol): -4.27; log10 vapour pressure (mmHg): -4.3; ready biodegradability: not readily biodegradable; log10 BCF: 2.49; log10 biotransformation half-life (days): -0.15
5 | CNC(=O)Oc1cccc(N=CN(C)C)c1 | – | – | log10 Koc (L/kg): 2.44
6 | C=CCCCl | – | 75 | –
7 | O=C1C=C(Nc2ccccc2)C(=O)c2ccccc21 | 193 | – | –
8 | O=S1(=O)CCN(CN2CCS(=O)(=O)NC2)CN1 | 156 | – | –
9 | Clc1cccc(-c2c(Cl)cc(Cl)c(Cl)c2Cl)c1Cl | – | – | log10 Henry constant (atm·m³/mol): -4.41
10 | CC(C)=CC1C(C(=O)OCc2coc(Cc3ccccc3)c2)C1(C)C (configuration not stated) | 44.2 | – | log10 Koc (L/kg): 5
11 | N#CCI | – | 185 | –
12 | OCC1CCCO1 (configuration not stated) | – | 178 | log10 vapour pressure (mmHg): -0.0964; ready biodegradability: readily biodegradable
13 | Clc1cc(Cl)cc(C2(CC(Cl)(Cl)Cl)CO2)c1 (configuration not stated) | 42.8 | – | log10 Koc (L/kg): 3.75
14 | CC(CCl)CCl | – | 136 | –
15 | Nc1ccc(N)c2c1C(=O)c1ccccc1C2=O | 268 | – | log10 vapour pressure (mmHg): -9.7
16 | Cc1ccc2c(c1Cl)C(=O)c1ccccc1C2=O | 170 | – | –
17 | FC(F)=C(F)Br | – | -1 | log10 vapour pressure (mmHg): 3.29
18 | C=CCOC(=O)OCCOCCOC(=O)OCC=C | -4 | – | ready biodegradability: readily biodegradable
19 | CC(C)(C)CCO | -60 | 143 | log10 vapour pressure (mmHg): 0.389
20 | O=CC(Cl)(Cl)Cl | -57.5 | 97.8 | log10 Henry constant (atm·m³/mol): -8.54; log10 vapour pressure (mmHg): 1.7; ready biodegradability: not readily biodegradable
21 | C#C | -80.7 | -84.7 | log10 vapour pressure (mmHg): 4.56

Row | Structure (SMILES) | melting point [°C] | boiling point [°C] | further results
22 | CC(C)(COCc1cccc(Oc2ccccc2)c1)c1ccc(OC(F)(F)Br)cc1 | – | – | log10 vapour pressure (mmHg): -8.23
23 | CCC(CC)C(=O)Cl | – | 140 | –
24 | COc1cccc(CC(C)=O)c1 | – | 259 | –
25 | O=[N+]([O-])c1ccc(-c2ccccc2[N+](=O)[O-])cc1 | 93.5 | – | –
26 | CCC(C)OC (configuration not stated) | -100 | 65 | log10 vapour pressure (mmHg): 2.32
27 | Brc1cc(Br)c(Br)s1 | 29 | 260 | –
28 | CCCCCCCCCCOC(=O)Cl | – | 220 | log10 vapour pressure (mmHg): -1.59
29 | NS(=O)(=O)c1cc2c(cc1Cl)NCNS2(=O)=O | 274 | – | –
30 | CCCC(=O)C(=O)OCC | – | 182 | –
31 | CC1CC(C)(C)CC1=O (configuration not stated) | -25.6 | 160 | –
32 | CCCCOCCOC(=O)COc1ccc(Cl)cc1Cl | – | – | log10 vapour pressure (mmHg): -5.35
33 | CCCCN(CC)c1c([N+](=O)[O-])cc(C(F)(F)F)cc1[N+](=O)[O-] | 66 | 370 | log10 Koc (L/kg): 4.03; log10 vapour pressure (mmHg): -4.19; ready biodegradability: not readily biodegradable
34 | COCCCN | – | 118 | ready biodegradability: not readily biodegradable
35 | NC(=O)NC(=O)Cc1ccccc1 | 215 | – | –
36 | O=C(O)c1cc(=O)cc(C(=O)O)o1 | 262 | – | –
37 | CC(C)(F)F | -105 | -0.4 | –
38 | N#Cc1ccc2c(c1)N(CCCN1CCC(O)CC1)c1ccccc1S2 | 116 | – | –
39 | CO[Si](OC)(OC)OC | – | 121 | –
40 | COc1ccc2c3c1O[C@H]1[C@@H](O)C=C[C@H]4[C@@H](C2)N(C)CC[C@@]341.Cl | 280 | – | –
41 | CC(O)C(O)CO (configuration not stated) | – | – | log10 vapour pressure (mmHg): -2.47
42 | Nc1ccc(S(=O)(=O)c2ccc([N+](=O)[O-])cc2)cc1 | 170 | – | –

Row | Structure (SMILES) | melting point [°C] | boiling point [°C] | further results
43 | COc1c(Cl)c(Cl)c(Cl)c(Cl)c1OC | 90 | – | –
44 | C[N+]1([O-])[C@@H]2C[C@@H](OC(=O)[C@H](CO)c3ccccc3)C[C@H]1[C@@H]1O[C@@H]12 (some centres not stated) | 80 | – | –
45 | CCOC(=O)C(C)C(=O)OCC | – | 201 | –
46 | NC(=O)C1(N2C(=O)c3cccc(Cl)c3C2=O)CCCCC1 | 194 | – | –
47 | CCN(CC)C(C)CN1c2ccccc2Sc2ccccc21 (configuration not stated) | 64.5 | – | –
48 | C=CC(C)CCCC (configuration not stated) | – | 111 | –
49 | CC(=O)OCC(COC(C)=O)OC(C)=O | – | 259 | log10 vapour pressure (mmHg): -2.61; ready biodegradability: readily biodegradable
50 | CCOc1ccc(Cl)cc1Cl | 32 | 237 | –
51 | FC(F)(Cl)C(F)(F)C(F)(F)C(F)(F)C(F)(F)C(F)(F)C(F)(F)C(F)(F)Cl | – | 151 | –
52 | C[C@@H]1C[C@H]2[C@@H]3CCC4=CC(=O)C=C[C@]4(C)[C@@]3(F)[C@@H](O)C[C@]2(C)[C@H]1C(=O)CO | 217 | – | –
53 | CCCCCc1ccc(C)cc1O | 24 | – | –
54 | CC(C)NCc1ccccc1 | – | 200 | –
55 | CNC(=O)CSP(=O)(OC)OC | -28 | – | log10 vapour pressure (mmHg): -4.61
56 | CCOc1cc(Oc2ccc(C(F)(F)F)cc2Cl)ccc1[N+](=O)[O-] | 84 | 358 | log10 Koc (L/kg): 5; log10 vapour pressure (mmHg): -6.7
57 | CCC(C)(C)OC(N)=O | 86 | – | –
58 | CCc1ccc(C(C)=O)cc1 | -20.6 | – | log10 vapour pressure (mmHg): -0.0389
59 | CCCc1ccc2c(c1)OCO2 | – | 228 | –
60 | CCCC=NO | -29.5 | 154 | –
61 | FC(F)(F)c1cccc(Cl)c1 | -56 | 138 | ready biodegradability: not readily biodegradable; log10 BCF: 2.35; log10 biotransformation half-life (days): 0.64
